Data from ChEMBL document CHEMBL3822389, “New insights into 3-(aminomethyl)naphthoquinones: Evaluation of cytotoxicity, electrochemical behavior and search for structure-activity correlation” (Bioorg Med Chem Lett, 2016).

Tests used:
MDA-MB-435 = experiment: Cytotoxicity against human MDA-MB-435 cells after 72 hrs by MTT assay; assay type: functional, cell-based
[1] = Cytotoxicity against human HCT8 cells after 72 hrs by MTT assay; assay type: functional, cell-based, HCT-8
[2] = Cytotoxicity against human SF295 cells after 72 hrs by MTT assay; assay type: functional, cell-based, SF-295
[3] = Cytotoxicity against human HL60 cells after 72 hrs by MTT assay; assay type: functional, cell-based, HL-60

CCCCCCCCCCNC(C1=C(O)C(=O)c2ccccc2C1=O)c1ccccc1O (stereo not given)
IC50 (MDA-MB-435; Homo sapiens, MDA-MB-435, 72 h): 30.9 µM | IC50 ([1]; Homo sapiens, HCT-8, 72 h): 32.2 µM | IC50 ([2]; Homo sapiens, SF-295, 72 h): 23.1 µM | IC50 ([3]; Homo sapiens, HL-60, 72 h): 12.2 µM

CCCCNC(C1=C(O)C(=O)c2ccccc2C1=O)c1ccc(Cl)cc1Cl (stereo not given) [listing 1 of 2 here]
IC50 ([2]; Homo sapiens, SF-295, 72 h): > 40 µM | IC50 ([3]; Homo sapiens, HL-60, 72 h): > 40 µM

CCCCNC(C1=C(O)C(=O)c2ccccc2C1=O)c1ccccc1O (stereo not given) [listing 1 of 2 here]
IC50 (MDA-MB-435; Homo sapiens, MDA-MB-435, 72 h): > 40 µM | IC50 ([1]; Homo sapiens, HCT-8, 72 h): > 40 µM | IC50 ([2]; sf-295): > 40 µM | IC50 ([3]; hl-60): > 40 µM

O=C1C(O)=C(C(NCc2ccccn2)c2ccccc2)C(=O)c2ccccc21 (stereo not given) [listing 1 of 2 here]
IC50 (MDA-MB-435; mda-mb-435): 3.6 µM | IC50 ([1]; hct-8): 6.3 µM | IC50 ([2]; sf-295): 13.5 µM | IC50 ([3]; hl-60): 5.4 µM

CCCCCCCCCCNC(C1=C(O)C(=O)c2ccccc2C1=O)c1ccccn1 (stereo not given)
IC50 (MDA-MB-435; Homo sapiens, MDA-MB-435, 72 h): 23.3 µM | IC50 ([1]; Homo sapiens, HCT-8, 72 h): 1.7 µM | IC50 ([2]; Homo sapiens, SF-295, 72 h): 1.7 µM | IC50 ([3]; Homo sapiens, HL-60, 72 h): 3.8 µM

O=C1C(O)=C(C(NCCCCl)c2cccc(O)c2)C(=O)c2ccccc21 (stereo not given)
IC50 (MDA-MB-435; Homo sapiens, MDA-MB-435, 72 h): > 40 µM | IC50 ([1]; Homo sapiens, HCT-8, 72 h): > 40 µM | IC50 ([2]; Homo sapiens, SF-295, 72 h): > 40 µM | IC50 ([3]; Homo sapiens, HL-60, 72 h): > 40 µM

CCCCNC(C1=C(O)C(=O)c2ccccc2C1=O)c1ccccc1O (stereo not given) [listing 2 of 2 here]
IC50 (MDA-MB-435; mda-mb-435): 25.6 µM | IC50 ([1]; hct-8): 20.5 µM | IC50 ([2]; Homo sapiens, SF-295, 72 h): 33.3 µM | IC50 ([3]; hl-60): 6.5 µM

Cc1ccc(NC(C2=C(O)C(=O)c3ccccc3C2=O)c2ccccn2)cc1 (stereo not given)
IC50 (MDA-MB-435; Homo sapiens, MDA-MB-435, 72 h): > 40 µM | IC50 ([1]; Homo sapiens, HCT-8, 72 h): > 40 µM | IC50 ([2]; Homo sapiens, SF-295, 72 h): > 40 µM | IC50 ([3]; Homo sapiens, HL-60, 72 h): > 40 µM

O=C1C(O)=C(CNCCCCl)C(=O)c2ccccc21
IC50 (MDA-MB-435; Homo sapiens, MDA-MB-435, 72 h): > 40 µM | IC50 ([1]; Homo sapiens, HCT-8, 72 h): > 40 µM | IC50 ([2]; Homo sapiens, SF-295, 72 h): > 40 µM | IC50 ([3]; Homo sapiens, HL-60, 72 h): > 40 µM

CCCCCCCNC(C1=C(O)C(=O)c2ccccc2C1=O)c1cc(Br)ccc1O (stereo not given)
IC50 (MDA-MB-435; Homo sapiens, MDA-MB-435, 72 h): > 40 µM | IC50 ([1]; Homo sapiens, HCT-8, 72 h): > 40 µM | IC50 ([2]; Homo sapiens, SF-295, 72 h): > 40 µM | IC50 ([3]; Homo sapiens, HL-60, 72 h): > 40 µM

CC(C)(C)OC(=O)NCCNC(C1=C(O)C(=O)c2ccccc2C1=O)c1ccc(Cl)cc1Cl (stereo not given)
IC50 (MDA-MB-435; Homo sapiens, MDA-MB-435, 72 h): > 40 µM | IC50 ([1]; Homo sapiens, HCT-8, 72 h): > 40 µM | IC50 ([2]; Homo sapiens, SF-295, 72 h): > 40 µM | IC50 ([3]; Homo sapiens, HL-60, 72 h): > 40 µM

O=C1C(O)=C(C(NCc2ccccn2)c2ccccc2)C(=O)c2ccccc21 (stereo not given) [listing 2 of 2 here]
IC50 (MDA-MB-435; mda-mb-435): > 40 µM | IC50 ([1]; hct-8): 14.3 µM | IC50 ([2]; sf-295): > 40 µM | IC50 ([3]; hl-60): > 40 µM

O=C1C(O)=C(C(NCCCCl)c2ccccc2O)C(=O)c2ccccc21 (stereo not given)
IC50 (MDA-MB-435; Homo sapiens, MDA-MB-435, 72 h): 30.1 µM | IC50 ([1]; Homo sapiens, HCT-8, 72 h): 17.7 µM | IC50 ([2]; Homo sapiens, SF-295, 72 h): 17.5 µM | IC50 ([3]; Homo sapiens, HL-60, 72 h): 8.1 µM

CCCCCCCNC(C1=C(O)C(=O)c2ccccc2C1=O)c1cccc(O)c1 (stereo not given)
IC50 (MDA-MB-435; Homo sapiens, MDA-MB-435, 72 h): > 40 µM | IC50 ([1]; Homo sapiens, HCT-8, 72 h): > 40 µM | IC50 ([2]; Homo sapiens, SF-295, 72 h): > 40 µM | IC50 ([3]; Homo sapiens, HL-60, 72 h): > 40 µM

CCCCNC(C1=C(O)C(=O)c2ccccc2C1=O)c1cc(Br)ccc1O (stereo not given) [listing 1 of 2 here]
IC50 (MDA-MB-435; Homo sapiens, MDA-MB-435, 72 h): > 40 µM | IC50 ([1]; hct-8): > 40 µM | IC50 ([2]; sf-295): > 40 µM | IC50 ([3]; hl-60): > 40 µM

CC(C)(C)OC(=O)NCCCNC(C1=C(O)C(=O)c2ccccc2C1=O)c1cccc(O)c1 (stereo not given)
IC50 (MDA-MB-435; Homo sapiens, MDA-MB-435, 72 h): > 40 µM | IC50 ([1]; Homo sapiens, HCT-8, 72 h): > 40 µM | IC50 ([2]; Homo sapiens, SF-295, 72 h): > 40 µM | IC50 ([3]; Homo sapiens, HL-60, 72 h): > 40 µM

O=C1C(O)=C(C(NCCCCl)c2cc(Br)ccc2O)C(=O)c2ccccc21 (stereo not given)
IC50 (MDA-MB-435; Homo sapiens, MDA-MB-435, 72 h): > 40 µM | IC50 ([1]; Homo sapiens, HCT-8, 72 h): > 40 µM | IC50 ([2]; Homo sapiens, SF-295, 72 h): 28.8 µM | IC50 ([3]; Homo sapiens, HL-60, 72 h): 8.4 µM

O=C1C(O)=C(C(NCc2ccccc2)c2cc(Br)ccc2O)C(=O)c2ccccc21 (stereo not given)
IC50 (MDA-MB-435; Homo sapiens, MDA-MB-435, 72 h): > 40 µM | IC50 ([1]; Homo sapiens, HCT-8, 72 h): 15.9 µM | IC50 ([2]; sf-295): 10.7 µM | IC50 ([3]; hl-60): 4.9 µM

O=C1C(O)=C(C(NCCCCl)c2ccc(Cl)cc2Cl)C(=O)c2ccccc21 (stereo not given)
IC50 (MDA-MB-435; Homo sapiens, MDA-MB-435, 72 h): > 40 µM | IC50 ([1]; Homo sapiens, HCT-8, 72 h): > 40 µM | IC50 ([2]; Homo sapiens, SF-295, 72 h): > 40 µM | IC50 ([3]; Homo sapiens, HL-60, 72 h): > 40 µM

O=C1C(O)=C(C(Nc2ccccc2)c2ccccn2)C(=O)c2ccccc21 (stereo not given)
IC50 (MDA-MB-435; Homo sapiens, MDA-MB-435, 72 h): > 40 µM | IC50 ([1]; Homo sapiens, HCT-8, 72 h): > 40 µM | IC50 ([2]; Homo sapiens, SF-295, 72 h): > 40 µM | IC50 ([3]; Homo sapiens, HL-60, 72 h): > 40 µM

CCCCNC(C1=C(O)C(=O)c2ccccc2C1=O)c1ccc(Cl)cc1Cl (stereo not given) [listing 2 of 2 here]
IC50 (MDA-MB-435; Homo sapiens, MDA-MB-435, 72 h): > 40 µM | IC50 ([1]; Homo sapiens, HCT-8, 72 h): > 40 µM

CCCCNC(C1=C(O)C(=O)c2ccccc2C1=O)c1cc(Br)ccc1O (stereo not given) [listing 2 of 2 here]
IC50 (MDA-MB-435; mda-mb-435): 23.9 µM | IC50 ([1]; hct-8): 12.5 µM | IC50 ([2]; Homo sapiens, SF-295, 72 h): 21.4 µM | IC50 ([3]; hl-60): 6.2 µM

CCCCNC(C1=C(O)C(=O)c2ccccc2C1=O)c1ccccn1 (stereo not given)
IC50 (MDA-MB-435; Homo sapiens, MDA-MB-435, 72 h): > 40 µM | IC50 ([1]; Homo sapiens, HCT-8, 72 h): 12.5 µM | IC50 ([2]; Homo sapiens, SF-295, 72 h): 9.5 µM | IC50 ([3]; Homo sapiens, HL-60, 72 h): > 40 µM

O=C1C(O)=C(C(NCCCCl)c2ccc([N+](=O)[O-])cc2)C(=O)c2ccccc21 (stereo not given)
IC50 (MDA-MB-435; Homo sapiens, MDA-MB-435, 72 h): > 40 µM | IC50 ([1]; Homo sapiens, HCT-8, 72 h): > 40 µM | IC50 ([2]; Homo sapiens, SF-295, 72 h): > 40 µM | IC50 ([3]; Homo sapiens, HL-60, 72 h): > 40 µM

CCCCNC(C1=C(O)C(=O)c2ccccc2C1=O)c1cc(C)ccc1O (stereo not given)
IC50 (MDA-MB-435; mda-mb-435): 11 µM | IC50 ([1]; hct-8): 5.6 µM | IC50 ([2]; sf-295): 5.5 µM | IC50 ([3]; hl-60): 1.6 µM

CCCCCCCNC(C1=C(O)C(=O)c2ccccc2C1=O)c1ccc(Cl)cc1Cl (stereo not given)
IC50 (MDA-MB-435; Homo sapiens, MDA-MB-435, 72 h): > 40 µM | IC50 ([1]; Homo sapiens, HCT-8, 72 h): > 40 µM | IC50 ([2]; Homo sapiens, SF-295, 72 h): > 40 µM | IC50 ([3]; Homo sapiens, HL-60, 72 h): 4.5 µM

O=C1C(O)=C(C(NCc2ccccc2)c2ccccn2)C(=O)c2ccccc21 (stereo not given)
IC50 (MDA-MB-435; Homo sapiens, MDA-MB-435, 72 h): > 40 µM | IC50 ([1]; Homo sapiens, HCT-8, 72 h): 2.2 µM | IC50 ([2]; Homo sapiens, SF-295, 72 h): 1.3 µM | IC50 ([3]; Homo sapiens, HL-60, 72 h): 4.8 µM

CCCCCCCNC(C1=C(O)C(=O)c2ccccc2C1=O)c1ccccc1O (stereo not given)
IC50 (MDA-MB-435; Homo sapiens, MDA-MB-435, 72 h): 33.3 µM | IC50 ([1]; Homo sapiens, HCT-8, 72 h): 19.7 µM | IC50 ([2]; Homo sapiens, SF-295, 72 h): 18.9 µM | IC50 ([3]; Homo sapiens, HL-60, 72 h): 7.7 µM

CC(C)(C)OC(=O)NCCCNC(C1=C(O)C(=O)c2ccccc2C1=O)c1ccccc1 (stereo not given)
IC50 (MDA-MB-435; Homo sapiens, MDA-MB-435, 72 h): > 40 µM | IC50 ([1]; Homo sapiens, HCT-8, 72 h): > 40 µM | IC50 ([2]; Homo sapiens, SF-295, 72 h): > 40 µM | IC50 ([3]; Homo sapiens, HL-60, 72 h): > 40 µM

Cc1ccc(O)c(C(NCc2ccccc2)C2=C(O)C(=O)c3ccccc3C2=O)c1 (stereo not given)
IC50 (MDA-MB-435; Homo sapiens, MDA-MB-435, 72 h): 18.7 µM | IC50 ([1]; Homo sapiens, HCT-8, 72 h): 12.1 µM | IC50 ([2]; sf-295): 14.4 µM
